# Assay results published in patent publication US9932637B2, “Genetic polymorphisms associated with cardiovascular disorders and drug response, methods of detection and uses thereof” (CELERA CORPORATION, priority 2003, dated 2018).
# Tested on: patients with prior myocardial infarction (CARE study)
# Experiment: CARE: association of SNPs with pravastatin treatment in cardiovascular events prevention (logistic regression, odds ratio pravastatin vs placebo by genotype; Table 8)
# Format: in vivo, human
# Details: for Fatal/Non-fatal Cerebrovascular Disease, Prava vs. Placebo Odds Ratio (95% CI): ABCA1 hCV2741051, All Patients; for 1st Stroke Occurred During CARE, n/total (%) / Any Report of Stroke During CARE, n/total (%) / Fatal/Non-fatal Cerebrovascular Disease, n/total (%) / Prava vs. Placebo Odds Ratio, 0 Rare Alleles / Prava vs. Placebo Odds Ratio, 1 Rare Alleles / Prava vs. Placebo Odds Ratio, 2 Rare Alleles / Odds ratio pravastatin vs placebo / Fatal CHD/Definite Non-fatal MI, n/total (%) / Hosp. for Unstable Angina, n/total (%) / Total Coronary Heart Disease Events, n/total (%): All Patients; for 1st Stroke Occurred During CARE, n/total (%) / Any Report of Stroke During CARE, n/total (%) / Fatal/Non-fatal Cerebrovascular Disease, n/total (%) / Fatal CHD/Definite Non-fatal MI, n/total (%) / Hosp. for Unstable Angina, n/total (%) / Total Coronary Heart Disease Events, n/total (%): Prava; for Catheterization, n/total (%): ABCC8 hCV600632, All Patients; for Catheterization, n/total (%) / Nonfatal MI (Probable/Definite), n/total (%) / Nonfatal MI (def & prob), n/total (%): Prava arm
# From the text: In order to identify genetic markers associated with acute coronary events (e.g. MI, stroke, unstable angina, congestive heart failure, etc.) or response to statin treatment for the prevention of coronary events, samples from the Cholesterol and Recurrent Events (CARE) study (a randomized multicentral double-blinded trial on secondary prevention of acute coronary events with pravastatin) (Sacks et al., 1991, Am. J. Cardiol. 68: 1436-1446) were genotyped. A well-documented myocardial infarction (MI) was one of the enrollment criteria for entry into the CARE study. Patients were enrolled in the CARE trial from 80 participating study centers. […] Patients were randomized to receive either 40 mg of pravastatin once daily or a matching placebo. The primary endpoint of the trial was death from coronary heart disease and the median duration of follow-up was 5.0 years (range, 4.0 to 6.2 years). […] Secondary endpoints of other related cardiovascular or metabolic disease events, and changes in clinical variables were also recorded in pravastatin-treated and placebo groups. All individuals included in the study had signed a written informed consent form and the study protocol was approved by the respective Institutional Review Boards (IRBs).
# For genotyping SNPs in CARE patient samples, DNA was extracted from blood samples using conventional DNA extraction methods such as the QIA-amp kit from Qiagen. Genotypes were obtained on an ABI PRISM® 7900HT Sequence Detection PCR system (Applied Biosystems, Foster City, Calif.) by kinetic allele-specific PCR, similar to the method described by Germer et al. (Germer S., Holland M. J., Higuchi R. 2000, Genome Res. 10: 258-266).
# Statistical analysis for association of SNPs with pravastatin treatment in cardiovascular events prevention (Table 8) was carried out using an overall logistic regression model that included an intercept, a parameter for the effect of a genotype containing two rare alleles versus a genotype containing no rare alleles, a parameter for the effect of a genotype containing one rare allele versus a genotype containing no rare alleles, a parameter for the effect of use of pravastatin versus the use of placebo, and parameters for the interaction effects between SNP genotypes and pravastatin use. The test of the overall model is a chi-square test with two degrees of freedom for analyses containing all three genotypes, and one degree of freedom for analyses containing two genotypes.
# Effect sizes were estimated through odds ratios (pravastatin group versus placebo) for carriers of each genotype (groups of 0, 1, and 2 minor allele carriers). The effect was considered to be significant if p-value for testing whether any of the interactions between SNP genotypes and pravastatin use were <0.05. […] Odds ratios less than one indicate that the specific SNP allele has a protective effect and odds ratios greater than one indicate that the specific SNP allele has an adverse effect.
# [1] = ABCA1 hCV2741051, 1 Rare Allele, n/total 5/651
# [2] = ABCA1 hCV2741051, 1st Stroke Occurred During CARE
# [3] = ABCA1 hCV2741051, 2 Rare Alleles, n/total 2/127
# [4] = ABCA1 hCV2741051, Any Report of Stroke During CARE
# [5] = ADAMTS13 hCV11571465, All Patients, 0 Rare Alleles
# [6] = ADAMTS13 hCV11571465, All Patients, 1 Rare Allele
# [7] = ADAMTS13 hCV11571465, All Patients, 2 Rare Alleles
# [8] = AGTR1 hCV3187716, Fatal CHD/Definite Non-fatal MI
# [9] = AGTR1 hCV3187716, Hosp. for Unstable Angina
# [10] = AGTR1 hCV3187716, Total Coronary Heart Disease Events
compound,measurement,setting,value
CC[C@H](C)C(=O)O[C@H]1C[C@H](O)C=C2C=C[C@H](C)[C@H](CC[C@@H](O)C[C@@H](O)CC(=O)O)[C@H]21 [pravastatin],"Fatal/Non-fatal Cerebrovascular Disease, Prava vs. Placebo Odds Ratio (95% CI)",0 Rare Alleles,0.98
same,"Fatal/Non-fatal Cerebrovascular Disease, Prava vs. Placebo Odds Ratio (95% CI)",1 Rare Alleles,0.43
same,"Fatal/Non-fatal Cerebrovascular Disease, Prava vs. Placebo Odds Ratio (95% CI)",2 Rare Alleles,0.26
same,"1st Stroke Occurred During CARE, n/total (%)","ABCA1 hCV2741051, 0 Rare Alleles, n/total 26/730",(3.6%)
same,"Any Report of Stroke During CARE, n/total (%)","ABCA1 hCV2741051, 0 Rare Alleles, n/total 27/730",(3.7%)
same,"Fatal/Non-fatal Cerebrovascular Disease, n/total (%)","ABCA1 hCV2741051, 0 Rare Alleles, n/total 51/730",(7.0%)
same,"1st Stroke Occurred During CARE, n/total (%)",[1],(0.8%)
same,"Any Report of Stroke During CARE, n/total (%)",[1],(0.8%)
same,"Fatal/Non-fatal Cerebrovascular Disease, n/total (%)","ABCA1 hCV2741051, 1 Rare Allele, n/total 18/651",(2.8%)
same,"Prava vs. Placebo Odds Ratio, 0 Rare Alleles",[2],0.98
same,"Prava vs. Placebo Odds Ratio, 1 Rare Alleles",[2],0.26
same,"Prava vs. Placebo Odds Ratio, 2 Rare Alleles",[2],0.23
same,"1st Stroke Occurred During CARE, n/total (%)",[3],(1.6%)
same,"Any Report of Stroke During CARE, n/total (%)",[3],(1.6%)
same,"Fatal/Non-fatal Cerebrovascular Disease, n/total (%)","ABCA1 hCV2741051, 2 Rare Alleles, n/total 3/127",(2.4%)
same,"Prava vs. Placebo Odds Ratio, 0 Rare Alleles",[4],0.92
same,"Prava vs. Placebo Odds Ratio, 1 Rare Alleles",[4],0.21
same,"Prava vs. Placebo Odds Ratio, 2 Rare Alleles",[4],0.23
same,"Catheterization, n/total (%)",0 Rare Alleles,(12.0%)
same,"Catheterization, n/total (%)",1 Rare Allele,(8.8%)
same,"Catheterization, n/total (%)",2 Rare Alleles,(10.2%)
same,Odds ratio pravastatin vs placebo,"ABCC8 hCV600632, Catheterization, 0 rare alleles",1.21
same,Odds ratio pravastatin vs placebo,"ABCC8 hCV600632, Catheterization, 1 rare allele",0.55
same,Odds ratio pravastatin vs placebo,"ABCC8 hCV600632, Catheterization, 2 rare alleles",0.81
same,"Nonfatal MI (Probable/Definite), n/total (%)",[5],(9.1%)
same,"Nonfatal MI (def & prob), n/total (%)",[5],(9.1%)
same,"Nonfatal MI (Probable/Definite), n/total (%)",[6],(10.3%)
same,"Nonfatal MI (def & prob), n/total (%)",[6],(9.6%)
same,"Nonfatal MI (Probable/Definite), n/total (%)",[7],(6.6%)
same,"Nonfatal MI (def & prob), n/total (%)",[7],(6.2%)
same,Odds ratio pravastatin vs placebo,"ADAMTS13 hCV11571465, Nonfatal MI (Probable/Definite), 0 rare alleles",0.62
same,Odds ratio pravastatin vs placebo,"ADAMTS13 hCV11571465, Nonfatal MI (Probable/Definite), 1 rare allele",0.88
same,Odds ratio pravastatin vs placebo,"ADAMTS13 hCV11571465, Nonfatal MI (Probable/Definite), 2 rare alleles",0.38
same,Odds ratio pravastatin vs placebo,"ADAMTS13 hCV11571465, Nonfatal MI (def & prob), 0 rare alleles",0.65
same,Odds ratio pravastatin vs placebo,"ADAMTS13 hCV11571465, Nonfatal MI (def & prob), 1 rare allele",0.91
same,Odds ratio pravastatin vs placebo,"ADAMTS13 hCV11571465, Nonfatal MI (def & prob), 2 rare alleles",0.37
same,"Fatal CHD/Definite Non-fatal MI, n/total (%)","AGTR1 hCV3187716, 0 Rare Alleles, n/total 63/769",(8.2%)
same,"Hosp. for Unstable Angina, n/total (%)","AGTR1 hCV3187716, 0 Rare Alleles, n/total 120/769",(15.6%)
same,"Total Coronary Heart Disease Events, n/total (%)","AGTR1 hCV3187716, 0 Rare Alleles, n/total 227/769",(29.5%)
same,"Fatal CHD/Definite Non-fatal MI, n/total (%)","AGTR1 hCV3187716, 1 Rare Allele, n/total 72/625",(11.5%)
same,"Hosp. for Unstable Angina, n/total (%)","AGTR1 hCV3187716, 1 Rare Allele, n/total 103/625",(16.5%)
same,"Total Coronary Heart Disease Events, n/total (%)","AGTR1 hCV3187716, 1 Rare Allele, n/total 194/625",(31.0%)
same,"Fatal CHD/Definite Non-fatal MI, n/total (%)","AGTR1 hCV3187716, 2 Rare Alleles, n/total 5/120",(4.2%)
same,"Hosp. for Unstable Angina, n/total (%)","AGTR1 hCV3187716, 2 Rare Alleles, n/total 8/120",(6.7%)
same,"Total Coronary Heart Disease Events, n/total (%)","AGTR1 hCV3187716, 2 Rare Alleles, n/total 20/120",(16.7%)
same,"Prava vs. Placebo Odds Ratio, 0 Rare Alleles",[8],0.63
same,"Prava vs. Placebo Odds Ratio, 1 Rare Alleles",[8],0.95
same,"Prava vs. Placebo Odds Ratio, 2 Rare Alleles",[8],0.24
same,"Prava vs. Placebo Odds Ratio, 0 Rare Alleles",[9],0.89
same,"Prava vs. Placebo Odds Ratio, 1 Rare Alleles",[9],0.90
same,"Prava vs. Placebo Odds Ratio, 2 Rare Alleles",[9],0.27
same,"Prava vs. Placebo Odds Ratio, 0 Rare Alleles",[10],0.80
same,"Prava vs. Placebo Odds Ratio, 1 Rare Alleles",[10],0.82
same,"Prava vs. Placebo Odds Ratio, 2 Rare Alleles",[10],0.38
same,"Nonfatal MI (Probable/Definite), n/total (%)","APOE hCV905013, All Patients, 0 Rare Alleles",(8.4%)
same,"Nonfatal MI (Probable/Definite), n/total (%)","APOE hCV905013, All Patients, 1 Rare Allele",(10.4%)
same,"Nonfatal MI (Probable/Definite), n/total (%)","APOE hCV905013, All Patients, 2 Rare Alleles",(7.8%)
same,Odds ratio pravastatin vs placebo,"APOE hCV905013, Nonfatal MI (Probable/Definite), 0 rare alleles",0.51
